Source: patent publication US10696672B2 (Pliant Therapeutics, Inc., priority 2016, dated 2020)

target: recombinant human integrin αvβ6 (Homo sapiens (Human), UniProt P06756+P18564); test: Solid phase integrin αvβ6 binding assay; settings: plate-coated integrin; recombinant TGFβ1 LAP 0.67 ug/ml as ligand; 2 hours at 25° C.; read-out: αvβ6 Inhibition IC50 (nM) - range
Method: Example B1—Solid Phase Integrin αvβ6 Binding Assay
Microplates were coated with recombinant human integrin αvβ6 (2 ug/ml) in PBS (100 ul/well 25° C., overnight). The coating solution was removed, washed with wash buffer (0.05% Tween 20; 0.5 mM MnCl2; in 1×TBS). Plate was blocked with 200 ul/well of Block Buffer (1% BSA; 5% sucrose; 0.5 mM MnCl2; in 1×TBS) at 37° C. for 2 h. Dilutions of testing compounds and recombinant TGFβ1 LAP (0.67 ug/ml) in binding buffer (0.05% BSA; 2.5% sucrose; 0.5 mM MnCl2; in 1×TBS) were added. The plate was incubated for 2 hours at 25° C., washed, and incubated for 1 hour with Biotin-Anti-hLAP. Bound antibody was detected by peroxidase-conjugated streptavidin. The IC50 values for testing compounds were calculated by a four-parameter logistic regression.
The compounds tested were compound samples prepared according to procedures described in the Synthetic Examples section, with the stereochemical purity as indicated in the Examples indicated.

recombinant human integrin αvβ6, sequence (P06756 31-992): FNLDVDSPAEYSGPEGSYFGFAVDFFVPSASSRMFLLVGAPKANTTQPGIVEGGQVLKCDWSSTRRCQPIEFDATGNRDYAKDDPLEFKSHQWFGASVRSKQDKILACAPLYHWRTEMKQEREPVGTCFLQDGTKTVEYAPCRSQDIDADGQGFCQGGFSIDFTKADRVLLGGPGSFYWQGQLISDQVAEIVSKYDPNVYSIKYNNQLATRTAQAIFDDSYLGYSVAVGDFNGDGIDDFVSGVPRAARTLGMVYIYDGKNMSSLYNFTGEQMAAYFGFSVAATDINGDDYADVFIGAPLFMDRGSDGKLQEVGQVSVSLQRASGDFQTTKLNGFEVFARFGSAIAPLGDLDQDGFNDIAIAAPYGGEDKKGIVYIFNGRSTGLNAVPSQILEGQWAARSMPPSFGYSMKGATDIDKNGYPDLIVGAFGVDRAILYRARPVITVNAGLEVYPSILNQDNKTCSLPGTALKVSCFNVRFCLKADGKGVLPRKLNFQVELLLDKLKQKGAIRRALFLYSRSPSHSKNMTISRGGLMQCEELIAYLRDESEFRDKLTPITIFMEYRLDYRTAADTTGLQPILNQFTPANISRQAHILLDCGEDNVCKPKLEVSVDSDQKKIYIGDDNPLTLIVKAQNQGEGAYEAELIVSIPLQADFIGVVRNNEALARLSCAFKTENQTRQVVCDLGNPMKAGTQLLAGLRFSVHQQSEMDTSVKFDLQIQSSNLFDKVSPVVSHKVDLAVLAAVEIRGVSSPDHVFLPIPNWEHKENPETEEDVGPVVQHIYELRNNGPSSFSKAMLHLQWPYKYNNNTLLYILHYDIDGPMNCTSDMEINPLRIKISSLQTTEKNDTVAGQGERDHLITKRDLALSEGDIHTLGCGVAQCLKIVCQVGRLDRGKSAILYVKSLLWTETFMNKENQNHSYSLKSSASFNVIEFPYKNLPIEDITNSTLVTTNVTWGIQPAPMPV
recombinant human integrin αvβ6, sequence (P18564 22-707): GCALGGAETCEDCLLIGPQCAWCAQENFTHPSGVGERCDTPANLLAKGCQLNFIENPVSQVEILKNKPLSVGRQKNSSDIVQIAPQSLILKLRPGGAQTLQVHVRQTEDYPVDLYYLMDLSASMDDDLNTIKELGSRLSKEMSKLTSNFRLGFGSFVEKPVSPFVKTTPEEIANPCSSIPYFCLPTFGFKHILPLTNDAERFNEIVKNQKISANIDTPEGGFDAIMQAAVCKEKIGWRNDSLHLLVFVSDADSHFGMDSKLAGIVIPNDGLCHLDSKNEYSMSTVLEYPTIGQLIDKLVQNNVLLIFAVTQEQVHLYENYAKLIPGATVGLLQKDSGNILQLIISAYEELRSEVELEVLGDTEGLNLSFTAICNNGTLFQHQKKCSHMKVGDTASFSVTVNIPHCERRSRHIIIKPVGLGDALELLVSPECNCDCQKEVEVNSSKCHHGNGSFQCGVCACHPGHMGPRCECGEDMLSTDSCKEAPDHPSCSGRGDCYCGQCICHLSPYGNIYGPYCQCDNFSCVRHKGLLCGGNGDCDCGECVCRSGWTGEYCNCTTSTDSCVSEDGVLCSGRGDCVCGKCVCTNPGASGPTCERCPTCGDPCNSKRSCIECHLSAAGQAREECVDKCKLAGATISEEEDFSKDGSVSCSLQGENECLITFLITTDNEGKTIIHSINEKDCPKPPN

Compound	IC50 [nM]
O=C(N[C@H](CCN1CC[C@@H](CCc2ccc3c(n2)NCCC3)C1)C(=O)O)c1cccc(-c2ncco2)c1 [Compound 88]	< 50
O=C(O)[C@H](CCN1CC[C@@H](CCc2ccc3c(n2)NCCC3)C1)NC(=O)[C@@H]1CCCN1Cc1ncccn1 [Compound 90]	< 50
O=C(O)[C@H](CCN1CC[C@@H](CCc2ccc3c(n2)NCCC3)C1)NC(=O)[C@@H]1CCCN1CC1CC1 [Compound 91]	50 to 250
O=C(O)[C@H](CCN1CC[C@@H](CCc2ccc3c(n2)NCCC3)C1)NC(=O)[C@@H]1CCCN1CC1CCC1 [Compound 92]	< 50
CCC(CC)C(=O)N[C@@H](CCN1CCC[C@@](F)(CCc2ccc3c(n2)NCCC3)C1)C(=O)O [Compound 94]	50 to 250
CCC(CC)C(=O)N[C@@H](CCN1CC[C@@H](CCc2ccc3c(n2)NCCC3)C1)C(=O)O [Compound 95]	< 50
O=C(N[C@@H](CCN1CCC[C@@](F)(CCc2ccc3c(n2)NCCC3)C1)C(=O)O)c1cccc(N2CCOCC2)c1 [Compound 96]	50 to 250
O=C(N[C@@H](CCN1CCC[C@@](F)(CCc2ccc3c(n2)NCCC3)C1)C(=O)O)c1cc(F)cc(F)c1 [Compound 97]	50 to 250
Cc1nn(C)cc1-c1nn(C)c2c(C(=O)N[C@@H](CCN3CC[C@@H](CCc4ccc5c(n4)NCCC5)C3)C(=O)O)cccc12 [Compound 98]	250 to 1000
O=C(O)[C@H](CCN1CC[C@@H](CCc2ccc3c(n2)NCCC3)C1)NC(=O)[C@@H]1CCCN1Cc1cccnc1 [Compound 99]	< 50
COCCOc1cccc(C(=O)N[C@@H](CCN2CCC[C@@](F)(CCc3ccc4c(n3)NCCC4)C2)C(=O)O)c1 [Compound 100]	50 to 250
O=C(N[C@@H](CCN1CCC[C@@](F)(CCc2ccc3c(n2)NCCC3)C1)C(=O)O)c1c(Cl)cccc1Cl [Compound 101]	250 to 1000
Cn1cc(-c2nn(C)c3c(C(=O)N[C@@H](CCN4CC[C@@H](CCc5ccc6c(n5)NCCC6)C4)C(=O)O)cccc23)cn1 [Compound 102]	250 to 1000
O=C(N[C@@H](CCN1CCC[C@](F)(CCc2ccc3c(n2)NCCC3)C1)C(=O)O)c1cccc(F)c1Cl [Compound 103]	< 50
O=C(N[C@@H](CCN1CCC[C@](F)(CCc2ccc3c(n2)NCCC3)C1)C(=O)O)c1cc(F)cc(F)c1 [Compound 104]	< 50
O=C(N[C@@H](CCN1CCC[C@@](F)(CCc2ccc3c(n2)NCCC3)C1)C(=O)O)c1cc(F)cc(C(F)(F)F)c1 [Compound 105]	50 to 250
Cn1ncc2ccc(C(=O)N[C@@H](CCN3CCC[C@@](F)(CCc4ccc5c(n4)NCCC5)C3)C(=O)O)cc21 [Compound 106]	50 to 250
O=C(N[C@@H](CCN1CCC[C@@](F)(CCc2ccc3c(n2)NCCC3)C1)C(=O)O)C1CCC(F)(F)CC1 [Compound 107]	50 to 250

Compound	IC50 [nM]
CCC(CC)C(=O)N[C@@H](CCN1CCC[C@](F)(CCc2ccc3c(n2)NCCC3)C1)C(=O)O [Compound 108]	250 to 1000
O=C(N[C@@H](CCN1CCC[C@](F)(CCc2ccc3c(n2)NCCC3)C1)C(=O)O)C1CCC(F)(F)CC1 [Compound 109]	50 to 250
Cn1ncc2ccc(C(=O)N[C@@H](CCN3CCC[C@](F)(CCc4ccc5c(n4)NCCC5)C3)C(=O)O)cc21 [Compound 110]	< 50
CC(C)(C)OC(=O)N[C@@H](CCN1CC[C@@H](OCc2ccc3c(n2)NCCC3)C1)C(=O)O [Compound 111]	> 1000
Cc1cc(C)n(-c2cccc(C(=O)N[C@@H](CCN3CC[C@@H](OCc4ccc5c(n4)NCCC5)C3)C(=O)O)c2)n1 [Compound 113]	> 1000
CC(=O)N1CCN(CC[C@H](NC(=O)c2ccccc2)C(=O)O)C[C@@H]1CCc1ccc2c(n1)NCCC2 [Compound 116]	> 1000
O=C(N[C@@H](CCN1CC[C@@H](OCCc2ccc3c(n2)NCCC3)C1)C(=O)O)C1CCOCC1 [Compound 117]	250 to 1000
CC(C)(C(=O)N[C@@H](CCN1CC[C@@H](OCCc2ccc3c(n2)NCCC3)C1)C(=O)O)c1cccnc1 [Compound 122]	250 to 1000
CC(C)(O)CC1NCCC1C(=O)N[C@@H](CCN1CC(OCCc2ccc3c(n2)NCCC3)C1)C(=O)O (stereo partly drawn) [Compound 134]	250 to 1000
CC(C)(Cc1ccccc1)C(=O)N[C@@H](CCN1CC(CCc2ccc3c(n2)NCCC3)C1)C(=O)O [Compound 137]	> 1000
O=C(N[C@@H](CCN1CC(CCc2ccc3c(n2)NCCC3)C1)C(=O)O)c1c(Cl)cccc1Cl [Compound 139]	250 to 1000
O=C(N[C@@H](CCN1C2CCC1C(CCc1ccc3c(n1)NCCC3)C2)C(=O)O)c1cc(F)cc(C(F)(F)F)c1 (stereo partly drawn) [Compound 140]	> 1000
O=C(N[C@@H](CCN1C2CCC1C(CCc1ccc3c(n1)NCCC3)C2)C(=O)O)c1cc(F)cc(C(F)(F)F)c1 (stereo partly drawn) [Compound 141]	< 50
CC(C)(C(=O)N[C@@H](CCN1CC(CCc2ccc3c(n2)NCCC3)C1)C(=O)O)c1cccnc1 [Compound 144]	> 1000
CCC(CC)C(=O)N[C@@H](CCN1C2CCC1C(CCc1ccc3c(n1)NCCC3)C2)C(=O)O (stereo partly drawn) [Compound 145]	> 1000
O=C(N[C@@H](CCN1CC[C@H](CCc2ccc3c(n2)NCCC3)C1)C(=O)O)c1c(Cl)cccc1Cl [Compound 146]	< 50
O=C(N[C@H](CCN1CC[C@H](CCc2ccc3c(n2)NCCC3)C1)C(=O)O)c1c(Cl)cccc1Cl [Compound 147]	> 1000

More lines, now with the values ahead:

IC50 [nM]	Compound
< 50	O=C(O)[C@H](CCN1CC[C@@H](CCc2ccc3c(n2)NCCC3)C1)NC(=O)[C@@H]1COCCN1Cc1ccccc1 [Compound 89]
50 to 250	O=C(O)[C@H](CCN1CC[C@@H](CCc2ccc3c(n2)NCCC3)C1)NC(=O)[C@@H]1CCCCN1Cc1ccccc1 [Compound 93]
> 1000	O=C(N[C@@H](CCN1CC[C@@H](OCc2ccc3c(n2)NCCC3)C1)C(=O)O)c1ccccc1 [Compound 112]
250 to 1000	O=C(N[C@@H](CCN1CC[C@@H](OCCc2ccc3c(n2)NCCC3)C1)C(=O)O)c1c(Cl)cccc1Cl [Compound 114]
< 50	O=C(N[C@@H](CCN1CC(OCCc2ccc3c(n2)NCCC3)C1)C(=O)O)c1c(Cl)cccc1Cl [Compound 115]
250 to 1000	CC(C)(C(=O)N[C@@H](CCN1CC[C@@H](OCCc2ccc3c(n2)NCCC3)C1)C(=O)O)c1ccccc1 [Compound 118]
250 to 1000	CC(C)(Cc1ccccc1)C(=O)N[C@@H](CCN1CC[C@@H](OCCc2ccc3c(n2)NCCC3)C1)C(=O)O [Compound 119]
50 to 250	CC(C)(C(=O)N[C@@H](CCN1CC(OCCc2ccc3c(n2)NCCC3)C1)C(=O)O)c1ccccc1 [Compound 120]
250 to 1000	O=C(O)[C@H](CCN1CC[C@@H](OCCc2ccc3c(n2)NCCC3)C1)NC(=O)[C@@H]1CCCN1Cc1ccccc1 [Compound 121]
< 50	O=C(O)[C@H](CCN1CC(OCCc2ccc3c(n2)NCCC3)C1)NC(=O)[C@@H]1CCCN1Cc1ccccc1 [Compound 123]
50 to 250	O=C(N[C@@H](CCN1CC(OCCc2ccc3c(n2)NCCC3)C1)C(=O)O)C1CCOCC1 [Compound 124]
250 to 1000	O=C(N[C@@H](CCN1CC[C@@H](OCCc2ccc3c(n2)NCCC3)C1)C(=O)O)[C@@H]1CCN(c2ccccn2)C1 [Compound 125]
> 1000	O=C(N[C@@H](CCN1CC[C@@H](OCCc2ccc3c(n2)NCCC3)C1)C(=O)O)[C@H]1CCN(c2ccccn2)C1 [Compound 126]
< 50	O=C(O)[C@H](CCN1CC(OCCc2ccc3c(n2)NCCC3)C1)NC(=O)[C@@H]1CCCN1c1ccccc1 [Compound 127]
250 to 1000	CC(C)(C(=O)N[C@@H](CCN1CC(OCCc2ccc3c(n2)NCCC3)C1)C(=O)O)c1cccnc1 [Compound 128]
250 to 1000	O=C(O)[C@H](CCN1CC(CCc2ccc3c(n2)NCCC3)C1)NC(=O)[C@@H]1CCCN1c1ccccc1 [Compound 129]
250 to 1000	CC(C)(Cc1ccccc1)C(=O)N[C@@H](CCN1CC(OCCc2ccc3c(n2)NCCC3)C1)C(=O)O [Compound 130]
50 to 250	O=C(N[C@@H](CCN1CC(OCCc2ccc3c(n2)NCCC3)C1)C(=O)O)[C@@H]1CCN(c2ccccn2)C1 [Compound 131]
50 to 250	O=C(N[C@@H](CCN1CC(OCCc2ccc3c(n2)NCCC3)C1)C(=O)O)[C@H]1CCN(c2ccccn2)C1 [Compound 132]
250 to 1000	O=C(O)[C@H](CCN1CC[C@@H](OCCc2ccc3c(n2)NCCC3)C1)NC(=O)[C@@H]1CCCN1c1ccccc1 [Compound 133]
> 1000	O=C(N[C@@H](CCN1CC(CCc2ccc3c(n2)NCCC3)C1)C(=O)O)C1CCCN1Cc1ccccc1 (stereo partly drawn) [Compound 135]
> 1000	CC(C)(C(=O)N[C@@H](CCN1CC(CCc2ccc3c(n2)NCCC3)C1)C(=O)O)c1ccccc1 [Compound 136]
250 to 1000	O=C(N[C@@H](CCN1CC(CCc2ccc3c(n2)NCCC3)C1)C(=O)O)[C@H]1CCN(c2ccccn2)C1 [Compound 138]
> 1000	CC(C)(O)CN1CCC[C@H]1C(=O)N[C@@H](CCN1CC[C@@H](OCCc2ccc3c(n2)NCCC3)C1)C(=O)O [Compound 142]
> 1000	O=C(O)[C@H](CCN1CC(CCc2ccc3c(n2)NCCC3)C1)NC(=O)[C@@H]1CCNC1Cc1ccccc1 (stereo partly drawn) [Compound 143]
